Laboratory results: patent US9226916B2, “Pyrrolidine derivatives” (HOFFMANN-LA ROCHE INC., priority 2009, dated 2016)
Read-outs that look alike come from different tables or passages of the source.

Biological target: T1, recombinant human NK3 receptor (Homo sapiens, UniProt P29371)
T1 construct: expressed in transfected cells; host or cells: HEK293 cells, transient expression; membranes
T1 sequence (P29371 1-465): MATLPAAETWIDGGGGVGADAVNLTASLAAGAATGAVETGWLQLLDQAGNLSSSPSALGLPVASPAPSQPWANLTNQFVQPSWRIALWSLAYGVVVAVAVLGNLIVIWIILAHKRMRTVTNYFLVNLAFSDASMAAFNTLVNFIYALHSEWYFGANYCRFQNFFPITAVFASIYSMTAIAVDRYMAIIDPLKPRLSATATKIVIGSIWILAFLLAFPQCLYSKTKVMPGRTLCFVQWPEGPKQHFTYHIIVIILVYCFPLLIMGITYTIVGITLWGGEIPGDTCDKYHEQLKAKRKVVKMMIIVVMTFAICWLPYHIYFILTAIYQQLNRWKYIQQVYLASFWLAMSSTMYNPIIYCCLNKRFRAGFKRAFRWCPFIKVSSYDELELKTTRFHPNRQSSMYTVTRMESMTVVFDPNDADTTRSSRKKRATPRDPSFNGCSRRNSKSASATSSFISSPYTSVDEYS
Experiment: [3H]SR142801 competition binding assay

[1] = hNK-3 receptor affinity, membranes from HEK293 cells transiently expressing recombinant human NK3 receptor, [3H]SR142801, Cheng-Prussoff, read-out: Data Ki

Row | Ki [1] | Compound | Ki
1 | 19.5 nM | CN(C(=O)OCC1(C)COC1)[C@@H]1CN(C(=O)C2CCN(c3ccc(C#N)cn3)CC2)C[C@H]1c1ccc(Cl)cc1 [Example 218, [(3S,4R)-4-(4-Chloro-phenyl)-1-(5′-cyano-3,4,5,6-tetrahydro-2H-[1,2′]bipyridinyl-4-carbonyl)-pyrrolidin-3-yl]-methyl-carbamic acid 3-methyl-oxetan-3-ylmethyl ester] | 
2 | 3.6 nM | CN(C(=O)OCCC1CC1)[C@@H]1CN(C(=O)C2CCN(c3ccc(C#N)cn3)CC2)C[C@H]1c1ccc(Cl)cc1 [Example 219, [(3S,4R)-4-(4-Chloro-phenyl)-1-(5′-cyano-3,4,5,6-tetrahydro-2H-[1,2′]bipyridinyl-4-carbonyl)-pyrrolidin-3-yl]-methyl-carbamic acid 2-cyclopropyl-ethyl ester] | 
3 |  | CN(C(=O)O[C@H]1CC[C@@H](C)CC1)[C@@H]1CN(C(=O)C2CCN(c3ccc(C#N)cn3)CC2)C[C@H]1c1ccc(Cl)cc1 [Example 220, [(3S,4R)-4-(4-Chloro-phenyl)-1-(5′-cyano-3,4,5,6-tetrahydro-2H-[1,2′]bipyridinyl-4-carbonyl)-pyrrolidin-3-yl]-methyl-carbamic acid 4-methyl-cyclohexyl ester] | 42.8 nM
4 |  | CN(C(=O)O[C@H]1CC[C@H](C)CC1)[C@@H]1CN(C(=O)C2CCN(c3ccc(C#N)cn3)CC2)C[C@H]1c1ccc(Cl)cc1 [Example 221, [(3S,4R)-4-(4-Chloro-phenyl)-1-(5′-cyano-3,4,5,6-tetrahydro-2H-[1,2′]bipyridinyl-4-carbonyl)-pyrrolidin-3-yl]-methyl-carbamic acid 4-methyl-cyclohexyl ester] | 1 nM
5 |  | CN(C(=O)Oc1ccc(S(C)(=O)=O)cc1)[C@@H]1CN(C(=O)C2CCN(c3ccc(C#N)cn3)CC2)C[C@H]1c1ccc(Cl)cc1 [Example 224, [(3S,4R)-4-(4-Chloro-phenyl)-1-(5′-cyano-3,4,5,6-tetrahydro-2H-[1,2′]bipyridinyl-4-carbonyl)-pyrrolidin-3-yl]-methyl-carbamic acid 4-methanesulfonyl-phenyl ester] | 22.8 nM
6 |  | CN(C(=O)Oc1cccc(C#N)c1)[C@@H]1CN(C(=O)C2CCN(c3ccc(C#N)cn3)CC2)C[C@H]1c1ccc(Cl)cc1 [Example 225, [(3S,4R)-4-(4-Chloro-phenyl)-1-(5′-cyano-3,4,5,6-tetrahydro-2H-[1,2′]bipyridinyl-4-carbonyl)-pyrrolidin-3-yl]-methyl-carbamic acid 3-cyano-phenyl ester] | 11.2 nM
7 |  | CC(OC(=O)N(C)[C@@H]1CN(C(=O)C2CCN(c3ccc(C#N)cn3)CC2)C[C@H]1c1ccc(Cl)cc1)c1ccc(F)cc1 (stereo partly drawn) [Example 226, [(3S,4R)-4-(4-Chloro-phenyl)-1-(5′-cyano-3,4,5,6-tetrahydro-2H-[1,2′]bipyridinyl-4-carbonyl)-pyrrolidin-3-yl]-methyl-carbamic acid 1-(4-fluoro-phenyl)-ethyl ester] | 79.2 nM
8 |  | CN(C(=O)Oc1ccc(C#N)cc1)[C@@H]1CN(C(=O)C2CCN(c3ccc(C#N)cn3)CC2)C[C@H]1c1ccc(Cl)cc1 [Example 228, [(3S,4R)-4-(4-Chloro-phenyl)-1-(5′-cyano-3,4,5,6-tetrahydro-2H-[1,2′]bipyridinyl-4-carbonyl)-pyrrolidin-3-yl]-methyl-carbamic acid 4-cyano-phenyl ester] | 0.8 nM
9 |  | Cc1ccccc1OC(=O)N(C)[C@@H]1CN(C(=O)C2CCN(c3ccc(C#N)cn3)CC2)C[C@H]1c1ccc(Cl)cc1 [Example 229, [(3S,4R)-4-(4-Chloro-phenyl)-1-(5′-cyano-3,4,5,6-tetrahydro-2H-[1,2′]bipyridinyl-4-carbonyl)-pyrrolidin-3-yl]-methyl-carbamic acid o-tolyl ester] | 16.8 nM
10 |  | Cc1cccc(OC(=O)N(C)[C@@H]2CN(C(=O)C3CCN(c4ccc(C#N)cn4)CC3)C[C@H]2c2ccc(Cl)cc2)c1 [Example 230, [(3S,4R)-4-(4-Chloro-phenyl)-1-(5′-cyano-3,4,5,6-tetrahydro-2H-[1,2′]bipyridinyl-4-carbonyl)-pyrrolidin-3-yl]-methyl-carbamic acid m-tolyl ester] | 2.7 nM
11 | 5.7 nM | CN(C(=O)OCC1CCOCC1)[C@@H]1CN(C(=O)C2CCN(c3ccc(C#N)cn3)CC2)C[C@H]1c1ccc(Cl)cc1 [Example 231, [(3S,4R)-4-(4-Chloro-phenyl)-1-(5′-cyano-3,4,5,6-tetrahydro-2H-[1,2′]bipyridinyl-4-carbonyl)-pyrrolidin-3-yl]-methyl-carbamic acid tetrahydro-pyran-4-ylmethyl ester] | 
12 |  | CN(C(=O)OCC1CCCO1)[C@@H]1CN(C(=O)C2CCN(c3ccc(C#N)cn3)CC2)C[C@H]1c1ccc(Cl)cc1 (stereo partly drawn) [Example 232, [(3S,4R)-4-(4-Chloro-phenyl)-1-(5′-cyano-3,4,5,6-tetrahydro-2H-[1,2′]bipyridinyl-4-carbonyl)-pyrrolidin-3-yl]-methyl-carbamic acid tetrahydro-furan-2-ylmethyl ester] | 21.8 nM
13 |  | CN(C(=O)OCC1CCOC1)[C@@H]1CN(C(=O)C2CCN(c3ccc(C#N)cn3)CC2)C[C@H]1c1ccc(Cl)cc1 (stereo partly drawn) [Example 233, [(3S,4R)-4-(4-Chloro-phenyl)-1-(5′-cyano-3,4,5,6-tetrahydro-2H-[1,2′]bipyridinyl-4-carbonyl)-pyrrolidin-3-yl]-methyl-carbamic acid tetrahydro-furan-3-ylmethyl ester] | 6 nM
14 |  | CCC(C)(C)OC(=O)N(C)[C@@H]1CN(C(=O)C2CCN(c3ccc(C#N)cn3)CC2)C[C@H]1c1ccc(Cl)cc1 [Example 234, [(3S,4R)-4-(4-Chloro-phenyl)-1-(5′-cyano-3,4,5,6-tetrahydro-2H-[1,2′]bipyridinyl-4-carbonyl)-pyrrolidin-3-yl]-methyl-carbamic acid 1,1-dimethyl-propyl ester] | 79.4 nM
15 |  | CCC(OC(=O)N(C)[C@@H]1CN(C(=O)C2CCN(c3ccc(C#N)cn3)CC2)C[C@H]1c1ccc(Cl)cc1)c1ccc(F)cc1 (stereo partly drawn) [Example 236, [(3S,4R)-4-(4-Chloro-phenyl)-1-(5′-cyano-3,4,5,6-tetrahydro-2H-[1,2′]bipyridinyl-4-carbonyl)-pyrrolidin-3-yl]-methyl-carbamic acid 1-(4-fluoro-phenyl)-propyl ester] | 64.8 nM
16 |  | CN(C(=O)Oc1ccc(C#N)cc1F)[C@@H]1CN(C(=O)C2CCN(c3ccc(C#N)cn3)CC2)C[C@H]1c1ccc(Cl)cc1 [Example 237, [(3S,4R)-4-(4-Chloro-phenyl)-1-(5′-cyano-3,4,5,6-tetrahydro-2H-[1,2′]bipyridinyl-4-carbonyl)-pyrrolidin-3-yl]-methyl-carbamic acid 4-cyano-2-fluoro-phenyl ester] | 0.4 nM
17 |  | COC1CCC(OC(=O)N(C)[C@@H]2CN(C(=O)C3CCN(c4ccc(C#N)cn4)CC3)C[C@H]2c2ccc(Cl)cc2)CC1 (stereo partly drawn) [Example 238, [(3S,4R)-4-(4-Chloro-phenyl)-1-(5′-cyano-3,4,5,6-tetrahydro-2H-[1,2′]bipyridinyl-4-carbonyl)-pyrrolidin-3-yl]-methyl-carbamic acid 4-methoxy-cyclohexyl ester] | 48 nM
18 |  | CN(C(=O)OC(c1ccc(F)cc1)C1CC1)[C@@H]1CN(C(=O)C2CCN(c3ccc(C#N)cn3)CC2)C[C@H]1c1ccc(Cl)cc1 (stereo partly drawn) [Example 239, [(3S,4R)-4-(4-Chloro-phenyl)-1-(5′-cyano-3,4,5,6-tetrahydro-2H-[1,2′]bipyridinyl-4-carbonyl)-pyrrolidin-3-yl]-methyl-carbamic acid cyclopropyl-(4-fluoro-phenyl)-methyl ester] | 61.6 nM
19 |  | CN(C(=O)O[C@]1(C(F)(F)F)CC[C@@H](C)CC1)[C@@H]1CN(C(=O)C2CCN(c3ccc(C#N)cn3)CC2)C[C@H]1c1ccc(Cl)cc1 [Example 240, [(3S,4R)-4-(4-Chloro-phenyl)-1-(5′-cyano-3,4,5,6-tetrahydro-2H-[1,2′]bipyridinyl-4-carbonyl)-pyrrolidin-3-yl]-methyl-carbamic acid 4-methyl-1-trifluoromethyl-cyclohexyl ester] | 22.8 nM
20 | 2.7 nM | CN(C(=O)O[C@]1(C)CC[C@@H](C)CC1)[C@@H]1CN(C(=O)C2CCN(c3ccc(C#N)cn3)CC2)C[C@H]1c1ccc(Cl)cc1 [Example 242, [(3S,4R)-4-(4-Chloro-phenyl)-1-(5′-cyano-3,4,5,6-tetrahydro-2H-[1,2′]bipyridinyl-4-carbonyl)-pyrrolidin-3-yl]-methyl-carbamic acid 1,4-dimethyl-cyclohexyl ester] | 
21 | 47.2 nM | CN(C(=O)OC1(C)CCCC1)[C@@H]1CN(C(=O)C2CCN(c3ccc(C#N)cn3)CC2)C[C@H]1c1ccc(Cl)cc1 [Example 243, [(3S,4R)-4-(4-Chloro-phenyl)-1-(5′-cyano-3,4,5,6-tetrahydro-2H-[1,2′]bipyridinyl-4-carbonyl)-pyrrolidin-3-yl]-methyl-carbamic acid 1-methyl-cyclopentyl ester] | 
22 |  | CN(C(=O)Oc1ccc(Cl)cn1)[C@@H]1CN(C(=O)C2CCN(c3ccc(C#N)cn3)CC2)C[C@H]1c1ccc(Cl)cc1 [Example 244, [(3S,4R)-4-(4-Chloro-phenyl)-1-(5′-cyano-3,4,5,6-tetrahydro-2H-[1,2′]bipyridinyl-4-carbonyl)-pyrrolidin-3-yl]-methyl-carbamic acid 5-chloro-pyridin-2-yl ester] | 20.9 nM
23 |  | CN(C(=O)Oc1ccc(C#N)c(F)c1)[C@@H]1CN(C(=O)C2CCN(c3ccc(C#N)cn3)CC2)C[C@H]1c1ccc(Cl)cc1 [Example 245, [(3S,4R)-4-(4-Chloro-phenyl)-1-(5′-cyano-3,4,5,6-tetrahydro-2H-[1,2′]bipyridinyl-4-carbonyl)-pyrrolidin-3-yl]-methyl-carbamic acid 4-cyano-3-fluoro-phenyl ester] | 1.1 nM
